This is an account of results in patent US20230398125A1, “TREATING HEPATITIS” (Albireo AB, priority 2022, published 2023).

Some results are limits rather than exact numbers.

One data set has as its target T1, Human NTCP (Homo sapiens, UniProt Q14973).
T1 construct: expressed in transfected cells; peptide purchased from Pharmaron
T1 sequence (Q14973 1-349): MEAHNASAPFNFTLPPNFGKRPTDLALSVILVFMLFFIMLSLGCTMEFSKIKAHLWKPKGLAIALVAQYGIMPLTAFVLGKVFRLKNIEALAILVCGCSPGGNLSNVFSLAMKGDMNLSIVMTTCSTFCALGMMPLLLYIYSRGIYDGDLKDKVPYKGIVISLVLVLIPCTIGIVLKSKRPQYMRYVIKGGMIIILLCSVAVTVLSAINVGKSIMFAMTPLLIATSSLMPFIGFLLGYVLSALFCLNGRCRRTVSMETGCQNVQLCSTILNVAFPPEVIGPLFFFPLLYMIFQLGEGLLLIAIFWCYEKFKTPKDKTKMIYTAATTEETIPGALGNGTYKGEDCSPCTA
Nature of the data set: Time course of dissociation (washout), [3H]taurocholate uptake in hNTCP CHO cells. Type of data set: cell-based. The note with it: 1 μM for 15 min, 6 hours postwashout; read-out: inhibition of human NTCP BA transport activity after washout. Here is the method:
This study was performed using a [^3H]taurocholate uptake assay protocol. Stably transfected CHO cells expressing human NTCP (hNTCP) were seeded onto 24 well plates at a density of 1.5-2.0×10^5 cells/well in CHO cell media (DMEM/F12 media supplemented with 10% FBS, Penicillin/Streptomycin) plus Geneticin (G418) to maintain selection in culture. After overnight incubation, the media was replaced, and CHO cells were treated with 10 mM sodium butyrate to induce transporter expression (final concentration=[…]). Twenty-four h later, the media was removed, and cells were washed with warm (37° C.) Hanks balanced salt solution (HBSS) containing sodium (Na+). Cells were then incubated with 1 μM of the test inhibitors or vehicle (DMSO) for 15 min in CHO cell media at 37° C. […]
For the [^3H]taurocholate uptake assay, the media was aspirated at the end of each washout period, and cells were washed three times with warm Hanks balanced salt solution (HBSS) containing sodium (Na+). […] Duplicate 100 μL aliquots of the lysate were transferred to vials with scintillation liquid and counted after neutralization and overnight quenching. Cell-associated protein was measured in duplicate using the BCA protein assay, and cell-associated radioactivity was normalized to protein content.

The target in another data set is T2, M. fascicularis Ntcp (Macaca fascicularis, UniProt G7PAR4).
T2 construct: expressed in transfected cells; host or cells: GripTite 293 MSR (HEK293) cells, transient, Lipofectamine 2000
T2 sequence (G7PAR4 1-349): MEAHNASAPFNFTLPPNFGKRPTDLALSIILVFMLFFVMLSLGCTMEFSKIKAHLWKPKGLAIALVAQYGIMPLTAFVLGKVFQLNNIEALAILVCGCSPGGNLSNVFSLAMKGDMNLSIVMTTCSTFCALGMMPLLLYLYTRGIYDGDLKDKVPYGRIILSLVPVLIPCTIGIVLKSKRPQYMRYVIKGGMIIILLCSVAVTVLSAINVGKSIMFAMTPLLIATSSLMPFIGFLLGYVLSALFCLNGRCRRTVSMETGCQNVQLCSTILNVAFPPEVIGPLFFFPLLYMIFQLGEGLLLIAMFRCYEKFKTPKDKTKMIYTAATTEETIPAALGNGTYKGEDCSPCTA
Nature of the data set: [3H]TC transport in HEK293 cells transiently transfected with M. fascicularis Ntcp. Type of data set: cell-based. The note with it: read-out: IC50 bile acid transport via M. fascicularis Ntcp. Here is the method:
GripTite 293 MSR cells (here referred to as HEK293 cells, Invitrogen), a modified HEK293 cell line expressing human macrophage scavenger receptor for stronger adhesion, were maintained at 37° C., 5% CO2 and 95% humidity in DMEM/F-12 medium (Thermo Fisher Scientific) supplemented with 10% fetal calf serum (Sigma), 4 mM L-glutamine (PAA) and penicillin/streptomycin. HEK293 cells were transiently transfected with the M. fascicularis Ntcp cDNA construct for transport and peptide binding assays. Transfection was performed with Lipofectamine 2000 (Thermo Fisher Scientific). […]
Bile acid transport measurements were performed in the NTCP-HEK293 cells with tritium-labelled taurocholic acid (here referred to as [^3H]TC) (20 Ci/mmol, 0.09 mCi/mL, Perkin Elmer, Waltham, USA). […] Cell-associated radioactivity of [^3H]TC or [^3H]preS1 was quantified by liquid scintillation counting in a Packard Microplate Scintillation Counter TopCount NXT (Packard Instrument Company, Meriden, USA). Transport rates and [^3H]preS1 binding were determined in counts per minute (cpm). The mean of the 0% control was subtracted and the net [^3H]TC transport rates and net [^3H]preS1 binding rates, respectively, were expressed as % of control. IC50 values were calculated from quadruplicate determinations by GraphPad Prism 6 (GraphPad, San Diego, Calif., USA). […]

Data set [1] in a line: Body weight, mortality and observations in HBV-infected PXB mice. Type of data set: in vivo. The note with it: 10 and 30 mg/kg.

For `CCCCC1CN(c2ccccc2)c2cc(SC)c(O/C=C(\F)C(=O)O)cc2S(=O)(=O)N1C` (stereo not drawn) [Compound 1, (Z)-3-((3-butyl-2-methyl-7-(methylthio)-1,1-dioxido-5-phenyl-2,3,4,5-tetrahydro-1,2,5-benzothiadiazepin-8-yl)oxy)-2-fluoroacrylic acid], the inhibition (as a rule, how much of the control response was suppressed) at 1 µM on Human NTCP was above 50%. Besides, the IC50 (in general, the concentration at which inhibition is half-maximal) on M. fascicularis Ntcp was determined as 200 nM. For the same compound, the “observations related to treatment” value in data set [1] is “No noteworthy observations”.
